Read-outs that look alike come from different tables or passages of the source. Where no end group is shown, it is not given here.
Key:
T cells = conditions: cited from earlier work
[1] = test system: colorectal cancer cell line HCT116; conditions: Linnebacher et al.; HCT116 carries the corresponding frameshift mutation; cited from earlier work
[2] = test system: T-cells from PMBCs of healthy donors; test: T-cell proliferation after stimulation of PMBCs with mixture fsp17, fsp15 and fsp16 (Example 9); assay type: cell-based, human
Protocol: Using a similar procedure to that used in Examples 4 and 7 above, PMBCs from four healthy donors were stimulated in vitro with a peptide mixture containing equimolar amounts (10 uM) of fsp17 (SEQ ID NO: 126), fsp15 (SEQ ID NO: 127) and fsp16 (SEQ ID NO: 128), which are shown in Table 15, below. These peptides have the non-chiral amino acid glycine at their C-terminal, which can serve as a linker for conjugation of the peptides to other molecules. It is expected that this C-terminal glycine will not create any new T-cell epitopes which will change the specificity of the induced T-cells.
After one round (14 days) of in vitro stimulation, T-cells were harvested and tested for recognition of the peptide mixture or individual peptides, using a concentration of 10 μM of each peptide. T-cell proliferation was measured as counts per minute (CPM) after uptake of ^3H-thymidine in a standard T cell proliferation assay.
The PMBCs from the four healthy donors underwent a second round of in vitro stimulation, and T-cells were again harvested and tested for proliferation against the peptide mixture and the individual peptides.

[3] = test system: T-cells from PMBCs of healthy donors; test: T-cell proliferation after stimulation of PMBCs with mixture fsp10, fsp11 and fsp13 (Example 8); assay type: cell-based, human; conditions: FIG. 19; for T-cell response (proliferation, CPM): donor 1, one round of in vitro stimulation (14 days), 10 μM
Protocol: Using a similar procedure to that used in Examples 4 and 7 above, PMBCs from four healthy donors were stimulated in vitro with a peptide mixture containing equimolar amounts (10 uM) of fsp10 (SEQ ID NO: 28), fsp11 (SEQ ID NO: 29) and fsp13 (SEQ ID NO: 31).
After one round of stimulation (14 days), T-cells were harvested and tested for recognition of the peptide mixture, using single peptide concentrations of 10 μM. T-cell proliferation was measured as counts per minute (CPM) after uptake of ^3H-thymidine in a standard T cell proliferation assay.
The PMBCs from the four healthy donors underwent a second round of in vitro stimulation, and T-cells were again harvested and tested for proliferation against the peptide mixture and the individual peptides. […] While it has, in the past, been considered that a SI value of greater than 2 is the criterion for indicating a T-cell response in a T-cell proliferation assay, this is only the case in subjects who have been vaccinated prior to the T-cell proliferation assay. Where a healthy subject has not been vaccinated before the T-cell proliferation assay (as in the present T-cell proliferation assay), it is not expected that a SI value of 2 or greater will be achieved. Therefore, in non-vaccinated, healthy subjects, an increase in the SI value above 1 is indicative of a T-cell response.

[4] = assay type: physicochemical
Protocol: The peptide was difficult to dissolve and it was attempted to dissolve the crude fsp5 (SEQ ID NO: 19) (˜150 mg) in approximately 4 ml 50% MeCN in water under gentle heating.
Another batch of fsp5 (SEQ ID NO: 19) was prepared, dissolved in neat DMSO under gentle heating and purified by preparative HPLC. Again, only very small amounts of purified fsp5 (SEQ ID NO: 19) were obtained.

[5] = assay type: physicochemical; remark: listed apart in the source
Protocol: A batch of fsp5 (SEQ ID NO: 19) was prepared by solid phase peptide synthesis (SPPS) by using FMOC chemistry and Prelude synthesizer (Gyros Protein Technologies Inc., USA). The crude peptide was analysed by UPLC and MS. […] UPLC system: Column; Acquity UPLC BEH C18 […], detection; PDA 210-500 nm, solvent A); 0.1% TFA in water, solvent B; 0.1% TFA in MeCN, gradient: 20-70% B (2-10 minutes, linear).
When the purity of the small amount of purified fsp5 (SEQ ID NO: 19) was reassessed by UPLC after lyophilisation, the purity had dropped from around 90% to below 50% as shown in FIG. 4.

[6] = test system: T cells (PBMC) from healthy donors; test: T-cell proliferation (3H-thymidine, SI) after in vitro stimulation of PBMC with cocktail fsp2+fsp4 (Example 4); assay type: cell-based, human; parameters: T cell proliferation (stimulation index, SI): immunogenicity: dose or concentration left out as unconfirmed
Protocol: Fresh buffy coats from four healthy donors were obtained from a blood bank.
Peripheral blood mononuclear cells (PBMC) isolated from fresh buffy coats from four healthy donors were counted and suspended in DC medium to 15*10^6 cells/ml, and subsequently diluted with DC-medium to 4*10^6 cells/ml (Table 6).
Four 24-well plates were used for each donor, with 4*10^6 cells per well (each well has a volume of 1 ml).
Peptide cocktail: Solution of peptides fsp2+fsp4, containing […] of each peptide. 40 μl peptide solution was added to each well.
The plates were incubated in a cell incubator for 14 days (37° C., 5% CO2). IL-2 and IL-7 were added on day 3. The cells were inspected daily.
Test peptides: fsp2+fsp4 (SEQ ID NOs: 21 and 23), fsp1 (SEQ ID NO: 20), fsp2 (SEQ ID NO: 21), fsp3 (SEQ ID NO: 22), fsp4 (SEQ ID NO: 23), fsp5 (SEQ ID NO: 19).
Negative controls: T cells, T cells+APC (without addition of test peptides)
Cells and reagents were added to plate wells (in triplicate) as described in Tables 8 and 9 below. The total volume added to each well was 0.20 ml. • T cells (PBMC): 50 000 cells/well (0.25*10^6 cells/ml) • APC: Irradiated (30 Gy, 8 minutes) autologous feeder cells: 50 000 cells/well • (fspx): 0.2 nmol peptide/well (each peptide), concentration: […] peptide. (fsp was dissolved in DMSO before dilution to correct concentration)
The plates were incubated in a cell incubator for 48 hours (37° C., 5% CO2).
After incubation for 48 hours, 20 μl 3H-tThymidine solution (5 Ci/ml) was added to each well and the plates were incubated for approximately 17 hours (37° C., 5% CO2).
After 17 hours the cells were harvested (Unifilters) and dried on the filters at 45° C. until completely dry. After covering the bottom of the Unifilters with adhesive covers (delivered with the Unifilters) 25 μl micro scintillation liquid was added to each well, the plate was covered with TopSeal and 3H-Thymidine uptake was measured as counts per minute (CPM) using a microplate scintillation counter.
The T cell proliferation results after the first round of in vitro stimulation with the cocktail of fsp2 and fsp4 peptides are presented as stimulation index (SI) in FIG. 10. SI=mean CPM (triplicates) of (T cells+APC+test peptide(s)) divided by mean CPM (triplicates) of (T cells+APC). SI>1 indicates an increase in T-cell proliferation and SI 2 is a clear sign of immunogenicity.
PBMCs harvested after the first in vitro stimulation were re-stimulated in vitro according to the protocol set out above, with 2×10^6 cells per well. T-cell proliferation was tested according to the protocol set out above.

[7] = second round of in vitro stimulation, FIG. 22

Sequence: RLSSCVPVA (listed as Homo sapiens) [p573, prior art peptide of mutTGFβR2]
- immunogenicity (T cells; EP1078000 FIG. 14, four rounds of stimulation of the T-cells): not immunogenic
- immunogenicity (T cells; Linnebacher et al., FIG. 1): immunogenic
- activating specific CTLs (T cells; Linnebacher et al., HLA-A2.1 restricted, in vitro): capable of activating specific CTLs
- immunogenicity (T cells; Saeterdal et al., 2001, Cancer Immunol Immunother): immunogenic
- generation of CTL line and CTL clones (T cells; Saeterdal et al., Cancer Immunol Immunother 2001): able to generate a CTL line and several CTL clones
- lysis of colorectal cancer cell line HCT116 [1]: able to lyse the colorectal cancer cell line HCT116

Sequence: KKKGRRNRIPAVLRTEGEPLHTPSVGMRETG (listed as Homo sapiens) [fsp15, peptide of −1a frameshifted ASTE1]
- T-cell induction (proliferation) ([2]; one round (14 days) of in vitro stimulation, 10 μM, FIG. 21): T-cells are induced
- T-cell induction (proliferation) [2, 7]: T-cells were induced

Sequence: KGIMKEKKSLVRLSSCVPVALMSAMTG (not fully specified) [fsp17, modified peptide of −1a frameshifted TGFβR2]
- T-cell induction (proliferation) [2, 7]: T-cells were induced

Sequence: SCPLRDLQTLWPILALISMSSIWGTMFS (listed as Homo sapiens) [fsp11, peptide of −1a frameshifted SLC22A9]
- T-cell response (proliferation, CPM) [3]: induced T-cell responses
- induction of T-cells relative to mixture of fsp11 and fsp13 ([3]; donor 1, one round): greater induction of T-cells than the mixture of fsp11

Sequence: KKTLRNHLFLIRWIILTFLQKILK (listed as Homo sapiens) [fsp10, peptide of −1a frameshifted KIAA2018]
- T-cell response (proliferation, CPM) [3]: did not stimulate T-cells

Sequence: KCIMKEKKSLVRLSSCVPVALMSAMTTSSSQKN (listed as Homo sapiens) [fsp5, optimised consensus peptide of TGFβR2]
- effect of adding water to DMSO solution [4]: precipitation of the peptide
- solubility [4]: no clear solution could be obtained
- purity by UPLC after lyophilisation (stability) [5]: below 50%
- relative immunogenicity ([6]; FIGS. 10 and 11, compared with fsp3 and fsp4): more immunogenic than peptides which do not comprise amino acids from the wild-type sequence of TGFβR2
- T cell proliferation (stimulation index, SI): immunogenicity ([6]; first and second round of in vitro stimulation with cocktail of fsp2 and fsp4, four healthy donors, FIGS. 10-12): stimulated T-cells induced from PMBCs
